Results published in PMC4754833, “Rilpivirine analogs potently inhibit drug-resistant HIV-1 mutants” (Retrovirology, 2016).

Experiments:
HIV-1 RT mutant G190A = assay: single round infection assay, G190A; format: cell-based; conditions: for IC50: Human immunodeficiency virus 1
Experimental: (§1) The human osteosarcoma cell line, HOS, was obtained from Dr. Richard Schwartz (Michigan State University, East Lansing, MI) and grown in Dulbecco’s modified Eagle’s medium (Invitrogen, Carlsbad, CA) supplemented with 5 % (v/v) fetal bovine serum, 5 % newborn calf serum, and penicillin (50 units/ml) plus streptomycin (50 µg/ml; Quality Biological, Gaithersburg, MD). Virion production and single-round infectivity assays were used to determine antiviral activity (IC50 values) of the compounds as previously described.
(§2) pNLNgoMIVR-ΔEnv.LUC has been described previously. The RT open reading frame was removed from pNLNgoMIVR-ΔEnv.LUC (digestion with SpeI and SalI) and inserted between the SpeI and SalI sites of pBluescript II KS+. Using that construct as the wild-type template, we prepared the following HIV-1 RT mutants using the QuikChange II XL (Stratagene, La Jolla, CA) site-directed mutagenesis protocol kit: L100I, K103N, Y181C, Y188L, H221Y, K103N/Y181C, G190A, G190S, M230L, P236L, L100I/K103N, K103N/P225H, V106A/G190A/F227L, V106A, L234I, V106A/F227L, V106A/L234I, V106A/F227L/L234I, E40K, D67E, K101E, V111A, E138K, M184I, M184V, K101E/M184I, K101E/M184V, E138K/M184I, E138K/M184V, K101P, Y181I, and K101P/V179I. The following sense oligonucleotides were used with matching cognate antisense oligonucleotides (not shown) (Integrated DNA Technologies, Coralville, IA) in the mutagenesis: L100I, 5′-[…]-3′; L100I 2-103, 5′-[…]-3′; K103N, 5′-[…]-3′; Y181C, 5′-[…]-3′; Y188L, 5′-[…]-3′; H221Y, 5′-[…]-3′; G190A, 5′-[…]-3′; G190S, 5′-[…]-3′; P225H, 5′-[…]-3′; F227, 5′-[…]-3′; M230L, 5′-[…]-3′; P236L, 5′-[…]-3′; V106A, 5′-[…]-3′; L234I, 5′-[…]-3′; E40K, 5′-[…]-3′; D67E, 5′-[…]-3′; K101E, 5′-[…]-3′; V111A, 5′-[…]-3′; E138K, 5′-[…]-3′; M184I, 5′-[…]-3′; M184V, 5′-[…]-3′; K101P, 5′-[…]-3′; Y181I, 5′-[…]-3′; K101P/V179I, 5′-[…]-3′. The double mutants K103N/Y181C, K103N/P225H, and L100I/K103N were made using the previously generated K103N mutant and the appropriate oligonucleotides to add the second mutation, Y181C, P225, and L100I respectively. The double mutants V106A/F227L and V106A/L234I were prepared using the previously generated V106A mutant and the appropriate oligonucleotides to add the second mutation, F227L and L234I, respectively. The double mutants K101E/M184I and K101E/M184V were constructed using the previously generated K101E mutant and the appropriate oligonucleotides to add the second mutation, M184I and M184V, respectively. The double mutants E138K/M184I and E138K/M184V were constructed using the previously generated E138K mutant and the appropriate oligonucleotides for the second mutation, M184I and M184V, respectively. The triple mutant V106A/F227L/L234I was made using the previously generated V106A/F227L double mutant and the appropriate oligonucleotides for the third mutation, L234I. The triple mutant V106A/G190A/F227L was constructed in a series of steps using the previously generated V106A mutant and the appropriate oligonucleotides for the second mutation, G190A, to generate the double mutant V106A/G190A, and then the triple mutant was made using double mutant V106A/G190A and oligonucleotides for the third mutation, F227L. The DNA sequence of each construct was verified by DNA sequence determination. The sequences encoding the mutant RTs were then subcloned into pNLNgoMIVR-ΔEnv.LUC (between the KpnI and SalI sites) to produce the mutant HIV-1 constructs. These DNA sequences were also checked independently by DNA sequence determination.
(§3) 10.1186/s12977-016-0244-2 The IC50 values (nM) of RPV and the RPV analogs were determined against the NNRTI resistant mutants were measured by using a single round infection assay, n = 4. The concentrations (nM) are measured by reductions in luciferase reporter activity followed by the standard deviations. […]

HIV-1 RT mutant G190S = assay: single round infection assay, G190S; format: cell-based; conditions: Human immunodeficiency virus 1
Experimental: as §1, §2, §3

HIV-1 RT mutant P236L = assay: single round infection assay, P236L; format: cell-based; conditions: for IC50: Human immunodeficiency virus 1; for fold-change of IC50 of the mutant relative to WT: P236L vs WT
Experimental: as §1, §2, §3

[1] = test system: HIV-1 RT mutant L100I/K103N; assay: single round infection assay, L100I/K103N; format: cell-based; conditions: for IC50: Human immunodeficiency virus 1, L100I/K103N, ± SD, n=4, limit of detection 100 nM; for fold-change of IC50 of the mutant relative to WT: L100I/K103N vs WT
Experimental: as §1, §2, §3

HIV-1 RT mutant V106A = assay: single round infection assay, V106A; format: cell-based; conditions: for IC50: ± SD, n=4; for fold-change of IC50 of the mutant relative to WT: V106A vs WT
Experimental: as §1, §2, §3

[2] = test system: HIV-1 RT mutant V106A/F227L; assay: single round infection assay, V106A/F227L; format: cell-based; conditions: for fold-change of IC50 of the mutant relative to WT: V106A/F227L vs WT; for IC50: ± SD, n=4
Experimental: as §1, §2, §3

[3] = test system: HIV-1 RT mutant V106A/F227L/L234I; assay: single round infection assay, V106A/F227L/L234I; format: cell-based; conditions: for IC50: ± SD, n=4; for fold-change of IC50 of the mutant relative to WT: V106A/F227L/L234I vs WT
Experimental: as §1, §2, §3

[4] = test system: HIV-1 RT mutant K101E/M184I; assay: single round infection assay, K101E/M184I; format: cell-based; conditions: for IC50: ± SD, n=4; for fold-change of IC50 of the mutant relative to WT: K101E/M184I vs WT
Experimental: as §1, §2, §3

[5] = test system: HIV-1 RT mutant K101E/M184V; assay: single round infection assay, K101E/M184V; format: cell-based; conditions: K101E/M184V vs WT
Experimental: as §1, §2, §3

[6] = test system: HIV-1 RT mutant K101P/V179I; assay: single round infection assay, K101P/V179I; format: cell-based; conditions: Human immunodeficiency virus 1
Experimental: as §1, §2, §3

HIV-1 RT mutant L100I = test system: HIV-1 RT mutant L100I; parameters: method as in PMID 23217210; conditions: previous study; cited from earlier work
HIV-1 RT mutant K103N = test system: HIV-1 RT mutant K103N; parameters: method as in PMID 23217210; conditions: previous study; cited from earlier work
HIV-1 RT mutant Y181C = test system: HIV-1 RT mutant Y181C; parameters: method as in PMID 23217210; conditions: previous study; cited from earlier work
[7] = Human immunodeficiency virus 1, V106A (selected by DOR)
[8] = Human immunodeficiency virus 1, V106A/F227L/L234I (selected by DOR)
[9] = V106A/F227L/L234I (selected by DOR)

Structure (SMILES)	IC50 (HIV-1 RT mutant G190A)	IC50 (HIV-1 RT mutant G190S)	IC50 (HIV-1 RT mutant P236L)	fold-change of IC50 of the mutant relative to WT (HIV-1 RT mutant P236L)	IC50 [1]	fold-change of IC50 of the mutant relative to WT [1]	IC50 (HIV-1 RT mutant V106A; [7])	IC50 (HIV-1 RT mutant V106A; V106A (selected by DOR))	fold-change of IC50 of the mutant relative to WT (HIV-1 RT mutant V106A)	fold-change of IC50 of the mutant relative to WT [2]	IC50 [3, 8]	IC50 [3, 9]	fold-change of IC50 of the mutant relative to WT [3]	fold-change of IC50 of the mutant relative to WT [4]	fold-change of IC50 of the mutant relative to WT [5]	IC50 [6]	IC50 (HIV-1 RT mutant L100I)	IC50 (HIV-1 RT mutant K103N)	IC50 (HIV-1 RT mutant Y181C)	also measured
Cc1cc(/C=C/C#N)cc(C)c1Nc1ncc(N)c(Nc2ccc(C#N)cc2)n1 [compound 9]	0.6 nM	0.6 ± 0.07 nM	1.7 ± 0.7 nM	< 2	44.1 nM	34	< 5 nM	2.5 ± 1.2 nM	< 2	17	< 5 nM	6.4 ± 1.8 nM	5	3	< 2	> 100 nM	< 7 nM	< 7 nM	< 7 nM	IC50 ([4]; Human immunodeficiency virus 1, K101E/M184I): < 6 nM; IC50 ([4]; K101E/M184I): 3.3 ± 0.85 nM
COc1ccc(Nc2nc(Nc3c(C)cc(/C=C/C#N)cc3C)nc3[nH]cnc23)cc1 [compound 16]	0.37 ± 0.08 nM	0.17 ± 0.05 nM	0.2 nM	< 2	–	11	–	–	3	4	< 5 nM	3 ± 0.8 nM	18	< 2	2	> 100 nM	< 7 nM	< 7 nM	< 7 nM	fold-change of IC50 of the mutant relative to WT (HIV-1 RT mutant G190A; G190A vs WT): 2
CC(=O)c1ccc(Nc2nc(Nc3c(C)cc(/C=C/C#N)cc3C)nc3[nH]cnc23)cc1 [compound 14]	0.13 ± 0.04 nM	0.35 ± 0.05 nM	0.15 ± 0.05 nM	–	12.6 nM	31	< 5 nM	4.3 ± 0.5 nM	10	12	< 5 nM	2.7 ± 0.64 nM	7	< 2	< 2	> 100 nM	< 7 nM	< 7 nM	< 7 nM	IC50 ([2]; Human immunodeficiency virus 1, V106A/F227L (selected by DOR)): < 5 nM; IC50 ([2]; V106A/F227L (selected by DOR)): 4.9 ± 1.3 nM
